According to PubChem BioAssay AID1334 (NMMLSC, 2008):

Each compound was assayed against Cell division control protein 42 homolog (Homo sapiens) (UniProt P60953) (assay: inhibition of fluorescent GTP binding to wildtype Cdc42 – biochemical, multiplex bead flow cytometry, Bodipy-FL-GTP, dose response (AID 1334;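 note: potency of inhibiting fluorescent GTP binding to Cdc42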)). Details: bead-based flow cytometry, Bodipy-FL-GTP binding to GST-Cdc42.
Sequence of Cell division control protein 42 homolog (Homo sapiens) (P60953 whole entry, looked up): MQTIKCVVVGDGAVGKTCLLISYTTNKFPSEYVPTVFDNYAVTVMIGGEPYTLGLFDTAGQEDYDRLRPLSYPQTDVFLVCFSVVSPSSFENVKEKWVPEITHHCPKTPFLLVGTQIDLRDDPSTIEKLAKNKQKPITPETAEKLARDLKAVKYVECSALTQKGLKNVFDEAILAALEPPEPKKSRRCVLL

Compound	EC50
O=C(NCc1cccs1)c1cccnc1C(=O)O	4.01 µM
CCOC(=O)Cn1nnnc1C(C(C)C)N(Cc1cccs1)Cc1cc2cc(C)ccc2[nH]c1=O (configuration not stated)	7.28 µM
Cc1cc(C)c(C)c(C(=O)c2ccccc2C(=O)O)c1C	5.95 µM
CCCN1C(=O)/C(=C/C=C2\N(CC)c3ccccc3C2(C)C)SC1=S	5.49 µM
CC(C)C(NCc1c(Cl)cccc1Cl)C(=O)O (configuration not stated)	6.4 µM
COC(=O)c1cccnc1SCCc1ccccc1	18.7 µM
CCOC(=O)c1cc([N+](=O)[O-])c([N+](=O)[O-])cc1NC(C)=O	7.19 µM
Cc1sc2nc3ccc(NCc4ccco4)nn3c(=O)c2c1C	21.5 µM
N#Cc1c(-c2ccccc2)nc(SCC(=O)Nc2ccccc2)[nH]c1=O	2.1 µM
CCS(=O)(=O)N1N=C(c2cccc(NS(C)(=O)=O)c2)CC1c1ccc(C)cc1 (configuration not stated)	2.6 µM
CCC(C(=O)NC1CCCC1)N(C(=O)Cn1nnc(-c2ccc(C)o2)n1)c1cnc2ccccc2c1 (configuration not stated)	34.6 µM
CC(=O)c1ccc(C#CC(=O)c2ccc([N+](=O)[O-])cc2)cc1	0.394 µM
CS(=O)(=O)c1ccc(C(=O)OCC(=O)NC(=O)C2CCCCC2)cc1[N+](=O)[O-]	53.1 µM
CCc1ccc(NS(=O)(=O)c2ccc3[nH]cc(C(=O)N4CCc5ccccc54)c(=O)c3c2)cc1	18.9 µM
CCOc1ccc(/C=C2\SC(N3CCc4ccccc4C3)=NC2=O)cc1	40.5 µM
Cc1ccc(C)c(OCCn2cc(C(=O)O)c3ccccc32)c1	0.584 µM

Compound	EC50
CCn1nc(/C=C/c2ccccc2)nc2c(=O)n(C)c(=O)nc1-2	1.55 µM
CCOC(=O)c1c(NC(=O)C(=O)N/N=C/c2ccc(O)c(OC)c2)sc2c1CCCCC2	2.87 µM
O=C(O)c1ccccc1OCc1ccccc1Br	0.103 µM
CCCS(=O)(=O)c1nnnn1-c1cccc(OC)c1	19.3 µM
S=C(Nc1ccc(Oc2ccccc2)cc1)NC1CCCCC1	32.8 µM
Cc1nc2c(=O)n(C)c(=O)nc-2n(C)n1	1.96 µM
O=C(Nc1nnc(-c2ccc3c(c2)OCCO3)o1)c1ccc(Cc2ccccc2)cc1	0.355 µM
NS(=O)(=O)c1ccc(N2N=C(c3ccccc3)CC2c2ccccc2)cc1 (configuration not stated)	8.22 µM
CCCc1nc2c(=O)n(C)c(=O)nc-2n(C)n1	1.33 µM
COc1ccc(C2CC(c3ccccc3)=NN2c2ccc(S(N)(=O)=O)cc2)cc1 (configuration not stated)	3.2 µM
Cc1cccc2cc(CN(Cc3cccs3)C(c3nnnn3C3CCCC3)C(C)C)c(=O)[nH]c12 (configuration not stated)	1.96 µM
COc1ccc(-c2cc(C#N)nc(N3CCNCC3)n2)cc1	28.1 µM
NS(=O)(=O)c1ccc(N2N=C(c3ccccc3)CC2c2cccc(F)c2)cc1 (configuration not stated)	4.87 µM
O=C(O)c1ccccc1NCCc1ccc(Cl)cc1	1.53 µM
O=C(O)c1ccccc1Sc1ncnc2sc3c(c12)CCC3	4.38 µM
O=C(O)/C=C/c1cn(Cc2ccccc2)nc1-c1cccs1	3.99 µM
